In one experiment the target is T1, WAVE2 (Homo sapiens, UniProt Q9Y6W5).
T1 construct: expressed in transfected cells; host or cells: HEK 293T, transient transfection; unpurified cell lysate
Put plainly: MST binding, YFP-WAVE2 in HEK 293T cell lysate. On the procedure:
Diluted cell lysates of YFP-WASp/N-WASp/WAVE2-expressing HEK 293T cells were incubated with serially-diluted (100 μM-3 nM) SMCs. The mixed lysates and SMCs were then loaded into standard-treated Monolith™ capillaries and the fluorescence of the samples was measured by the Monolith NT.115 instrument at 60% MST power. Binding curves of WASp with SMC #6 (FIG. 3A), SMC #30 (FIG. 3B), SMC #33 (FIG. 3C), SMC #34 (FIG. 3D) and Y-27632 (FIG. 3E) or of N-WASp (FIG. 3F) or WAVE2 (FIG. 3G) with SMC #34 were generated by the NanoTemper Analysis 2.231 software. Normalized fluorescence (hot fluorescence/initial fluorescence) is plotted as a function of SMC concentration. […]
YFP-tagged WASp was obtained from cell lysates of Human Embryonic Kidney (HEK) 293T, transiently transfected with YFP-WASp/WAVE2/N-WASp by DNA-calcium phosphate co-precipitation as previously described (Reicher et al, 2012). […] After loading into the instrument (Monolith NT.115, NanoTemper), the samples were measured by standard protocols at 60% MST power. […] KD values were determined using the NanoTemper analysis software (NT Analysis 1.5.37 or 2.2.31).
Following this in silico screening, the inventors identified eight SMCs (#6, #23, #24, #25, #30, #32, #33, #34, see Table 1). […] The SMCs that specifically bind the degradation pocket of WASp were further evaluated by the inventors.

Experiment [1] concerns WAS−/−/WASp Y107C Jurkat T-cells. Put plainly: Lymphocyte migration on ICAM-1/SDF-1α, WAS−/−/WASp Y107C cells. Format: cell-based, human. On the procedure: (§1) WASp knockout Jurkat T-cell lines that express only exogenous YFP-WASp R86C (WAS^−/−/WASp R86C) or Y107C (WAS^−/−/WASp Y107C) were pretreated with SMC #34 in comparison to cells treated with the control. Cells that completely lack WASp expression (WAS^−/−) were also treated with the control. Cellular migration was tracked over a 20-min period on ICAM-1/SDF-1α-coated cover glasses, as described in Experimental procedures.
(§2) Approximately 1×10^5 lymphocytes were seeded over chambered coverslips (LabTek) pre-coated with 6 μg/ml ICAM-1 and 2 μg/ml SDF-1α. Cells were incubated at 37° C., 5% CO2 and DIC images were acquired with the Zeiss Observer Z1 inverted microscope every 5 s for 20 min under a 20× objective lens using Zen software. The random movement (Displacement and velocity) of the cells was automatically tracked and analyzed using TrackMate plugin of ImageJ software. An individual trace was assigned to each of the analyzed cells.

Experiment [2] relates to WAS−/− Jurkat T-cells. In words: Lymphocyte migration on ICAM-1/SDF-1α, WAS−/− cells. It counts as cell-based, human. On the procedure:
as §1, §2

For experiment [3], the system named is WAS−/− Jurkat T-cells. Put plainly: Lymphocyte activation (CD69, flow cytometry), WAS−/− cells. Format: cell-based, human. On the procedure: 1×10^6 WASp knockout Jurkat T-cell line that expresses only exogenous YFP-WASp harboring the common human WAS and XLT mutation, R86C (WAS−/−/WASp R86C) was pretreated with either negative control or SMC #34. Cells that completely lack WASp expression (WAS^−/−) were also treated with the control. The cells were then stimulated with PMA and Ionomycin. After incubation, the cells were stained with PE-Cy5™-conjugated mouse anti-human CD69 and lymphocyte activation was measured by flow cytometry as described in Experimental procedures. Histogram of negative control versus SMC #34 is presented.
PBMCs or Jurkat cells (about 3×10^5 cells) were incubated for 4 h, at 37° C. with 50 ng/ml PMA and 250 ng/ml lonomycin, or 40 ng/ml PMA and 6 μM Ionomycin, respectively, or left untreated. After incubation, the cells were collected and stained with 1 μg/ml anti-active human LFA-1 antibody (purified from KIM127 hybridoma sup, ATCC Cat #: CRL-2838, Sigma) for 30 min in 37° C., followed by staining with Alexa488-Fluor goat anti-mouse IgG1 secondary antibody (Molecular Probes, Cat #: A-21121), 30 min on ice. Cells were then co-stained with PE-Cy5™-conjugated mouse anti-human CD69 (BD Pharmingen, Cat #: 555532) to measure lymphocyte activation.
Background: A flow cytometer gives signals particle by particle.

T1 sequence (Q9Y6W5 whole entry, species assumed): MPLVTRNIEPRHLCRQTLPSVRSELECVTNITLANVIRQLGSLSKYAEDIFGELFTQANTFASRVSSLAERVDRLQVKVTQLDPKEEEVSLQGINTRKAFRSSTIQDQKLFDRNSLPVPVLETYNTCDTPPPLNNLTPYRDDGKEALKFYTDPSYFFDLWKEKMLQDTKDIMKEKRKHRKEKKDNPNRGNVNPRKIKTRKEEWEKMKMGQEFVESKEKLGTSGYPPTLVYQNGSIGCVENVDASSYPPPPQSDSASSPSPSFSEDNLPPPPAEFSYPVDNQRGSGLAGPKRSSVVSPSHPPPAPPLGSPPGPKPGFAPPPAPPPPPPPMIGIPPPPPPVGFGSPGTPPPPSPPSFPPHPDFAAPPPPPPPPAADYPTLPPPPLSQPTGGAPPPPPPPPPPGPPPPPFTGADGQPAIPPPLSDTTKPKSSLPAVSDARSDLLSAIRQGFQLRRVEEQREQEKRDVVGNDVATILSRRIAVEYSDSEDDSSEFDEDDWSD

As to `CC1CCCC(C)N1C(=O)CSc1nnc(COc2cccc3cccnc23)o1` (centres unmarked) [SMC #34, 1-(2,6-dimethylpiperidin-1-yl)-2-[[5-(quinolin-8-yloxymethyl)-1,3,4-oxadiazol-2-yl]sulfanyl]ethanone], the “binding to WAVE2” value on WAVE2 is reported as “no binding”. Moreover, the migration entry is listed as “significantly increased” in experiment [1] (WAS−/−/WASp Y107C cells, vs control) and “completely restored the migration” in the experiment on WAS−/− Jurkat T-cells [2]. The compound also yielded a mean cell displacement in experiment [1] (WAS−/−/WASp Y107C, 20 min, mean ± SE) of 74.24±8.16. Also, the “lymphocyte activation (CD69)” value in the experiment with WAS−/− Jurkat T-cells [3] is recorded as “restored the activation”.

The values are drawn from patent US12150940B2, “WASp-protecting small molecules, compositions, methods and uses thereof in the treatment of innate and acquired immune-related disorders or conditions” (BAR ILAN UNIVERSITY, priority 2016, dated 2024).
